Data from ChEMBL document CHEMBL4804286, “3-amino-4-(4-(4 (dimethylcarbamoyl) phenyl)-1,4-diazepan-1-yl) thieno [2,3-b] pyridine-2-carboxamide for use in cancer therapy and formulations comprising the same” (2020).
Several values for one entry are separate records, joined by “and”; a condition that tells them apart may be missing. Identical values can stand only once. Activity calls are given as the source filed them. No cut-off for these calls is given here.

Legend:
[1] = system: Tyrosine-protein kinase ABL1 (Homo sapiens), P00519 [M351T]; assay: Inhibition of phosphorylated human ABL1 M351T mutant assessed as percent of control at 2000 nM by KINOMEscan assay relative to control; set-up: scale not given: the % may be the effect or the level left
[2] = target: Activin receptor type-1B (Homo sapiens) (UniProt P36896); assay: Inhibition of human ACVR1B assessed as percent of control at 2000 nM by KINOMEscan assay relative to control; set-up: scale not given: the % may be the effect or the level left
[3] = target: Calcium/calmodulin-dependent protein kinase type 1 (Homo sapiens) (UniProt Q14012); assay: Inhibition of human CAMK1 assessed as percent of control at 2000 nM by KINOMEscan assay relative to control; set-up: scale not given: the % may be the effect or the level left
[4] = target: Calcium/calmodulin-dependent protein kinase type II subunit alpha (Homo sapiens) (UniProt Q9UQM7); assay: Inhibition of human CAMK2A assessed as percent of control at 2000 nM by KINOMEscan assay relative to control; set-up: scale not given: the % may be the effect or the level left
[5] = target: Cyclin-dependent kinase 2 (Homo sapiens) (UniProt P24941); assay: Inhibition of human CDK2 assessed as percent of control at 2000 nM by KINOMEscan assay relative to control; set-up: scale not given: the % may be the effect or the level left
[6] = target: Tyrosine-protein kinase CSK (Homo sapiens) (UniProt P41240); assay: Inhibition of human CSK assessed as percent of control at 2000 nM by KINOMEscan assay relative to control; set-up: scale not given: the % may be the effect or the level left
[7] = target: Casein kinase I isoform epsilon (Homo sapiens) (UniProt P49674); assay: Inhibition of human CSNK1E assessed as percent of control at 2000 nM by KINOMEscan assay relative to control; set-up: scale not given: the % may be the effect or the level left; conditions: INHIBITOR
[8] = target: Serine/threonine-protein kinase 17B (Homo sapiens) (UniProt O94768); assay: Inhibition of human DRAK2 assessed as percent of control at 2000 nM by KINOMEscan assay relative to control; set-up: scale not given: the % may be the effect or the level left
[9] = target: Ephrin type-A receptor 8 (Homo sapiens) (UniProt P29322); assay: Inhibition of human EPHA8 assessed as percent of control at 2000 nM by KINOMEscan assay relative to control; set-up: scale not given: the % may be the effect or the level left
[10] = system: Fibroblast growth factor receptor 3 (Homo sapiens), P22607 [G697C]; assay: Inhibition of human FGFR3 G697C mutant assessed as percent of control at 2000 nM by KINOMEscan assay relative to control; set-up: scale not given: the % may be the effect or the level left
Sequence of Fibroblast growth factor receptor 3 (Homo sapiens), P22607 [G697C] (P22607 whole entry G697C): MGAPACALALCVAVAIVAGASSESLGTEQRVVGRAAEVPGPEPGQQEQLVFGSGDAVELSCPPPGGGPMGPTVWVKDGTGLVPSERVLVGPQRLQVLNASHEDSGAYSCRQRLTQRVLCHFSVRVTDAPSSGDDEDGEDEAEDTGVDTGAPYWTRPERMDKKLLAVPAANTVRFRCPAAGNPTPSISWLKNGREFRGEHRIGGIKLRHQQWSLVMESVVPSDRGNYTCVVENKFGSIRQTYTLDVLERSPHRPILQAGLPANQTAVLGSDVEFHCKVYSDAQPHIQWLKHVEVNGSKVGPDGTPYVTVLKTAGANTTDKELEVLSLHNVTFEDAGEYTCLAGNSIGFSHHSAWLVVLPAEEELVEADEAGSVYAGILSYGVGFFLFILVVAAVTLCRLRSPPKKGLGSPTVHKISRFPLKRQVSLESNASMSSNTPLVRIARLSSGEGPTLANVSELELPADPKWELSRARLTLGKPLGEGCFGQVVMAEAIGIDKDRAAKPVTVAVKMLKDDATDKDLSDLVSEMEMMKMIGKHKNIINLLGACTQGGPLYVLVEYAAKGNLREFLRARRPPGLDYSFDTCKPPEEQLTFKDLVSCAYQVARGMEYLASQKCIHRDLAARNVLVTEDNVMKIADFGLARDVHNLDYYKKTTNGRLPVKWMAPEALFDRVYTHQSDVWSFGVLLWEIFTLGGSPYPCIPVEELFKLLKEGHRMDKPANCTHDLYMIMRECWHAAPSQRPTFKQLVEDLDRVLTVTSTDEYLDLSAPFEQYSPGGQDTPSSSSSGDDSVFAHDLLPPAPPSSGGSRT

[11] = system: Receptor-type tyrosine-protein kinase FLT3 (Homo sapiens), P36888 [D835V]; assay: Inhibition of human FLT3 D835V mutant assessed as percent of control at 2000 nM by KINOMEscan assay relative to control; set-up: scale not given: the % may be the effect or the level left; conditions: INHIBITOR
[12] = system: Receptor-type tyrosine-protein kinase FLT3 (Homo sapiens), P36888 [D835Y]; assay: Inhibition of human FLT3 D835Y mutant assessed as percent of control at 2000 nM by KINOMEscan assay relative to control; set-up: scale not given: the % may be the effect or the level left
[13] = target: Homeodomain-interacting protein kinase 2 (Homo sapiens) (UniProt Q9H2X6); assay: Inhibition of human HIPK2 assessed as percent of control at 2000 nM by KINOMEscan assay relative to control; set-up: scale not given: the % may be the effect or the level left
[14] = target: Serine/threonine-protein kinase MRCK beta (Homo sapiens) (UniProt Q9Y5S2); assay: Inhibition of human MRCKB assessed as percent of control at 2000 nM by KINOMEscan assay relative to control; set-up: scale not given: the % may be the effect or the level left
[15] = target: Serine/threonine-protein kinase 3 (Homo sapiens) (UniProt Q13188); assay: Inhibition of human MST2 assessed as percent of control at 2000 nM by KINOMEscan assay relative to control; set-up: scale not given: the % may be the effect or the level left
Sequence of Serine/threonine-protein kinase 3 (Homo sapiens) (Q13188 whole entry): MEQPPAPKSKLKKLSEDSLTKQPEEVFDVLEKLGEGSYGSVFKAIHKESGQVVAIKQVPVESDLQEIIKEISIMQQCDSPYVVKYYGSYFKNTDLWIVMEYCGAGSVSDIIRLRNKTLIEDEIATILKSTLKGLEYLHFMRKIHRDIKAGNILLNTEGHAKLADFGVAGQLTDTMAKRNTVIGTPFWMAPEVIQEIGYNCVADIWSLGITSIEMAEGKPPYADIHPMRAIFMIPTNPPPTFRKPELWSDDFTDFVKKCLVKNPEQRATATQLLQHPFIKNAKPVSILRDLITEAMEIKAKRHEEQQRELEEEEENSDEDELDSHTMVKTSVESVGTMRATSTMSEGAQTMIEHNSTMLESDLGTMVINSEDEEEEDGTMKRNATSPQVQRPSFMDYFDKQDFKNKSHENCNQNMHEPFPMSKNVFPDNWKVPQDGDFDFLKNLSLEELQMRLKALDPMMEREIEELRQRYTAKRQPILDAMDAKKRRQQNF

[16] = target: Protein odd-skipped-related 1 (Homo sapiens) (UniProt Q8TAX0); assay: Inhibition of human OSR1 assessed as percent of control at 2000 nM by KINOMEscan assay relative to control; set-up: scale not given: the % may be the effect or the level left
[17] = target: Serine/threonine-protein kinase PAK 4 (Homo sapiens) (UniProt O96013); assay: Inhibition of human PAK4 assessed as percent of control at 2000 nM by KINOMEscan assay relative to control; set-up: scale not given: the % may be the effect or the level left
[18] = system: Phosphatidylinositol 4,5-bisphosphate 3-kinase catalytic subunit alpha isoform (Homo sapiens), P42336 [Q546K]; assay: Inhibition of human PIK3CA Q546K mutant assessed as percent of control at 2000 nM by KINOMEscan assay relative to control; set-up: scale not given: the % may be the effect or the level left
Sequence of Phosphatidylinositol 4,5-bisphosphate 3-kinase catalytic subunit alpha isoform (Homo sapiens), P42336 [Q546K] (P42336 whole entry Q546K, canonical isoform): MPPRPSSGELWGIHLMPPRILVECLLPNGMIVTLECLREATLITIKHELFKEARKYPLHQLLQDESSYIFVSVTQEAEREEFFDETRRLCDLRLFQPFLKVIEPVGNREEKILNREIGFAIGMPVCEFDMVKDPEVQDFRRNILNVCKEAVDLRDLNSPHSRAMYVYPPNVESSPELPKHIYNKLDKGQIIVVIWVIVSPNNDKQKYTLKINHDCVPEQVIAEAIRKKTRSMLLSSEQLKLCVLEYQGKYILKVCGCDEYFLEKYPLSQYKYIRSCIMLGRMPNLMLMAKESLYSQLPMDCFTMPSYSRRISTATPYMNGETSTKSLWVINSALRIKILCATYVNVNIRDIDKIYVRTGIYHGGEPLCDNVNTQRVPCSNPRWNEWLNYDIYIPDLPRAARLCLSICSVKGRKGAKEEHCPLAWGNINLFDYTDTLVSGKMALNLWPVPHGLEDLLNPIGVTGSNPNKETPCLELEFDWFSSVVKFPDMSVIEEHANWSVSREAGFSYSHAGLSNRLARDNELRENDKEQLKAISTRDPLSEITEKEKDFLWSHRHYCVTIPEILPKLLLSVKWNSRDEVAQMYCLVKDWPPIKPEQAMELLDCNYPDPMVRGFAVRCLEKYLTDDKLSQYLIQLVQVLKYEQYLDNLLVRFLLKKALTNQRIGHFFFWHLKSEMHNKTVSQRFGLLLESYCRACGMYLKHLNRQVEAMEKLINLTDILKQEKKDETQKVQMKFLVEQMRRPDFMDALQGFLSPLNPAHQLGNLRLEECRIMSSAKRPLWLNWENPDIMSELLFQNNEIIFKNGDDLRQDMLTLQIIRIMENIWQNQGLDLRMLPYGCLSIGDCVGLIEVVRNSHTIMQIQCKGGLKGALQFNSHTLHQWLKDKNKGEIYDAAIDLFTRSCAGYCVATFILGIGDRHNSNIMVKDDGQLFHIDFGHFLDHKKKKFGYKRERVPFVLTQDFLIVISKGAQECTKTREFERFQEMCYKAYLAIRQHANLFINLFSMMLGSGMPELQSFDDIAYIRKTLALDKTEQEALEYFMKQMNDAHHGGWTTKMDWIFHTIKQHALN

[19] = target: Serine/threonine-protein kinase PknB (Mycobacterium tuberculosis) (UniProt P9WI81); assay: Inhibition of Mycobacterium tuberculosis PKNB assessed as percent of control at 2000 nM by KINOMEscan assay relative to control; set-up: scale not given: the % may be the effect or the level left
[20] = target: Protein kinase C iota type (Homo sapiens) (UniProt P41743); assay: Inhibition of human PRKCI assessed as percent of control at 2000 nM by KINOMEscan assay relative to control; set-up: scale not given: the % may be the effect or the level left
[21] = target: Interferon-induced, double-stranded RNA-activated protein kinase (Homo sapiens) (UniProt P19525); assay: Inhibition of human PRKR assessed as percent of control at 2000 nM by KINOMEscan assay relative to control; set-up: scale not given: the % may be the effect or the level left
Sequence of Interferon-induced, double-stranded RNA-activated protein kinase (Homo sapiens) (P19525 whole entry, the tested form may be a part): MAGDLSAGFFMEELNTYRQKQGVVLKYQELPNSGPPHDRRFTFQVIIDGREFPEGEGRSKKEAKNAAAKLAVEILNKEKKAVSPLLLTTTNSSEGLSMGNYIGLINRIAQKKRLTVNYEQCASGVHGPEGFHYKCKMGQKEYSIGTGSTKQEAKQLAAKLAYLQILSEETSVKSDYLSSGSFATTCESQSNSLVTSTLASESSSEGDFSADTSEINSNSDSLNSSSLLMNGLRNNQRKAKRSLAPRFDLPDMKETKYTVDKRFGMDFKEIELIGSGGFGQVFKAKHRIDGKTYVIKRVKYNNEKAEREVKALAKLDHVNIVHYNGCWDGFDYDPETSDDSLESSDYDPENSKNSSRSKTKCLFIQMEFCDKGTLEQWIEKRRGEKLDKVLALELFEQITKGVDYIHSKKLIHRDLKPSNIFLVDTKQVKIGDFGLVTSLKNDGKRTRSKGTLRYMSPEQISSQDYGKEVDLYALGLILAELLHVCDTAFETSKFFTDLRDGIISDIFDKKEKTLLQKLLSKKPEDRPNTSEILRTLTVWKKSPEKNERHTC

[22] = target: Ribosomal protein S6 kinase alpha-2 (Homo sapiens) (UniProt Q15349); assay: Inhibition of human C-terminal RSK3 kinase domain 2 assessed as percent of control at 2000 nM by KINOMEscan assay relative to control; set-up: scale not given: the % may be the effect or the level left
[23] = target: NUAK family SNF1-like kinase 2 (Homo sapiens) (UniProt Q9H093); assay: Inhibition of human SNARK assessed as percent of control at 2000 nM by KINOMEscan assay relative to control; set-up: scale not given: the % may be the effect or the level left
[24] = target: Proto-oncogene tyrosine-protein kinase Src (Homo sapiens) (UniProt P12931); assay: Inhibition of human SRC assessed as percent of control at 2000 nM by KINOMEscan assay relative to control; set-up: scale not given: the % may be the effect or the level left
Sequence of Proto-oncogene tyrosine-protein kinase Src (Homo sapiens) (P12931 2-536 limits assumed): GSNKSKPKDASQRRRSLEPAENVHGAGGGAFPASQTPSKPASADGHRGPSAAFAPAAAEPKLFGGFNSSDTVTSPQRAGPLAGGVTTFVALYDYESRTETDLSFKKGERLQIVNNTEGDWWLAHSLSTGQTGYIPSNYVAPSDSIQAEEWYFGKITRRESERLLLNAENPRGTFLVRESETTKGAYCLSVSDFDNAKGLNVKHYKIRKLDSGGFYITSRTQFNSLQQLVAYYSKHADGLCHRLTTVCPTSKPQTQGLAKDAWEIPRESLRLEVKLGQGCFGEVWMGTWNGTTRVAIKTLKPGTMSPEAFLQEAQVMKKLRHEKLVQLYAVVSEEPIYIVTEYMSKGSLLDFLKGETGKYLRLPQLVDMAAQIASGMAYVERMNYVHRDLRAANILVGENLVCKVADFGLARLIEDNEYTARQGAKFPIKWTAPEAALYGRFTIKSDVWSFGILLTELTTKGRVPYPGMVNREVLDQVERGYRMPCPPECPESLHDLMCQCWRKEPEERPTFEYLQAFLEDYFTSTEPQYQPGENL

[25] = target: SRSF protein kinase 1 (Homo sapiens) (UniProt Q96SB4); assay: Inhibition of human SRPK1 assessed as percent of control at 2000 nM by KINOMEscan assay relative to control; set-up: scale not given: the % may be the effect or the level left
Sequence of SRSF protein kinase 1 (Homo sapiens) (Q96SB4 whole entry): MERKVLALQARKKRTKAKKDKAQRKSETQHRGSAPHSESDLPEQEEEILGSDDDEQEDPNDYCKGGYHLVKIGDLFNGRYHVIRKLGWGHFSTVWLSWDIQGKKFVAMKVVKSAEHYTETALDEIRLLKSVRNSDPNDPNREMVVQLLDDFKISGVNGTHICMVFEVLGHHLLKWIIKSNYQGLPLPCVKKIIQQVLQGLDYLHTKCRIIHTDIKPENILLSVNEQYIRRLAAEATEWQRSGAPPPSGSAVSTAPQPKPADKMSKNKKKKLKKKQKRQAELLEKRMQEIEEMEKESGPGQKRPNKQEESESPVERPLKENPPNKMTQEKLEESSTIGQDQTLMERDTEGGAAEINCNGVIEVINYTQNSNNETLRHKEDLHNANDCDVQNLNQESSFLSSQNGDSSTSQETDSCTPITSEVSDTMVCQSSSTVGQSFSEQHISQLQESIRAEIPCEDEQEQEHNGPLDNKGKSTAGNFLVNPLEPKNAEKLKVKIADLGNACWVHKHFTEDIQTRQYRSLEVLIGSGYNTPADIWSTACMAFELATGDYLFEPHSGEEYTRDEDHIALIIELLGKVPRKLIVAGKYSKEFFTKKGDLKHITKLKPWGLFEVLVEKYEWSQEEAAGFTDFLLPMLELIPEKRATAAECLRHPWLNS

[26] = target: SRSF protein kinase 2 (Homo sapiens) (UniProt P78362); assay: Inhibition of human SRPK2 assessed as percent of control at 2000 nM by KINOMEscan assay relative to control; set-up: scale not given: the % may be the effect or the level left
[27] = target: NT-3 growth factor receptor (Homo sapiens) (UniProt Q16288); assay: Inhibition of human TRKC assessed as percent of control at 2000 nM by KINOMEscan assay relative to control; set-up: scale not given: the % may be the effect or the level left
[28] = target: Phosphatidylinositol 3-kinase catalytic subunit type 3 (Homo sapiens) (UniProt Q8NEB9); assay: Inhibition of human VPS34 assessed as percent of control at 2000 nM by KINOMEscan assay relative to control; set-up: scale not given: the % may be the effect or the level left
Sequence of Phosphatidylinositol 3-kinase catalytic subunit type 3 (Homo sapiens) (Q8NEB9 whole entry): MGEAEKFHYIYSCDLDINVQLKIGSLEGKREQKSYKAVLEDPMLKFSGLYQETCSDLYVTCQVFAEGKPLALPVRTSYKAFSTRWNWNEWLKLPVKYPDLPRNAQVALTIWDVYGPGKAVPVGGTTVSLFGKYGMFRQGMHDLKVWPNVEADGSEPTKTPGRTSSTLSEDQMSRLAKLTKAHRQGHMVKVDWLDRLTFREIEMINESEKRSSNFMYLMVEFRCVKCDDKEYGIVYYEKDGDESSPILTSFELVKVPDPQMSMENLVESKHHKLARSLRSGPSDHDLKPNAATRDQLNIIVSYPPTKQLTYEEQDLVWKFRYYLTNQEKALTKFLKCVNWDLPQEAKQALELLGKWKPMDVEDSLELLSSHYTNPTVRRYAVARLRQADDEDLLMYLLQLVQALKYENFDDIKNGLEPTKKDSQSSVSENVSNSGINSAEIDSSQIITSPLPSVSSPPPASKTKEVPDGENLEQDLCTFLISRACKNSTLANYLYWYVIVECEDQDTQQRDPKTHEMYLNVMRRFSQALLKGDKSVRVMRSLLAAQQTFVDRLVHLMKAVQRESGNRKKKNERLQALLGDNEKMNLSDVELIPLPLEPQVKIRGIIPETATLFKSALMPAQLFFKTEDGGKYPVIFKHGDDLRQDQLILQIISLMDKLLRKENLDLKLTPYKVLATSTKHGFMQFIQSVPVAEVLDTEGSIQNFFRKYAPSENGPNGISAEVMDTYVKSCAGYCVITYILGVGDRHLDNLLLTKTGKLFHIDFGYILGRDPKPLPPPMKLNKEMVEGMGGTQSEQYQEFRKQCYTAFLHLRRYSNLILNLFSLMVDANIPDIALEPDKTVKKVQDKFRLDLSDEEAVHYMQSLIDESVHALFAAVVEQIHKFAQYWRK

[29] = target: Wee1-like protein kinase (Homo sapiens) (UniProt P30291); assay: Inhibition of human WEE1 assessed as percent of control at 2000 nM by KINOMEscan assay relative to control; set-up: scale not given: the % may be the effect or the level left
[30] = system: CWR22R; assay: Antitumor activity against human 22Rv1 cells expressing AR-V7 xenografted in male nude mouse assessed as suppression of tumor growth at 50 mg/kg, administered once a day for 40 days; type: functional, organism-based
[31] = system: Myc-CaP; assay: Inhibition of colony formation in murine castration-resistant Myc-CaP cells at 1 uM by clonogenic assay; type: functional; conditions: Mus musculus

## CN(C)C(=O)c1ccc(N2CCCN(c3ccnc4sc(C(N)=O)c(N)c34)CC2)cc1
[1]
  Activity: 77%
[1]; INHIBITOR
  Activity: 10%
[2]
  Activity: 100% and 99%
[3]
  Activity: 83% and 95%
[4]
  Activity: 90% and 100%
[5]
  Activity: 100% and 99%
[6]
  Activity: 86% and 92%
[7]
  Activity: 25% and 12%
[8]
  Activity: 100% and 87%
[9]
  Activity: 94% and 83%
[10]
  Activity: 95% and 100%
[11]
  Activity: 33% and 14%
[12]
  Activity: 100%
[12]; INHIBITOR
  Activity: 46%
[13]
  Activity: 100% and 81%
[14]
  Activity: 96% and 100%
[15]
  Activity: 100% and 84%
[16]
  Activity: 100% and 88%
[17]
  Activity: 87% and 100%
[18]
  Activity: 66% and 72%
[19]
  Activity: 100% and 90%
[20]
  Activity: 100%
[21]
  Activity: 100%
[22]
  Activity: 100% and 89%
[23]
  Activity: 100% and 78%
[24]
  Activity: 100% and 96%
[25]
  Activity: 100% and 97%
[26]
  Activity: 93% and 100%
[27]
  Activity: 91% and 85%
[28]
  Activity: 85% and 65%
[29]
  Activity: 100% and 88%
[30]
  Activity: Active
[31]
  inhibition: Active
